Laboratory results from ChEMBL document CHEMBL3525943, “Regiospecific and stereospecific triangulation of the structures of metabolites formed by sequential metabolism at multiple prochiral centers” (Drug Metab Dispos, 2012).

Assays:
Settings in all cases: in vivo; call rule not given here
[1] = Drug level in Sprague-Dawley rat urine treated with [14C]-(S)-2-((1R,2S,4R,5S)-5-hydroxybicyclo[2.2.1]heptan-2-ylamino)-5-isopropyl-5-methylthiazol-4(5H)-one at 5 mg/kg, po measured over 48 hrs by LC-MS/MS analysis; format: ADME, organism-based; design: dose 5 mg/kg, route oral
[2] = Retention time of the compound in Beagle dog urine treated with [14C]-AMG 221 at 2 mg/kg, po measured over 24 hrs by LC-MS/HPLC radiometric analysis; format: ADME, organism-based, Canis lupus familiaris; design: dose 2 mg/kg, route oral
Rattus norvegicus [3] = assay: Total drug recovery in female Sprague-Dawley rat treated with [14C]-AMG 221 at 2 mg/kg, po measured over 48 hrs by liquid scintillation counting analysis; format: ADME, organism-based; design: dose 2 mg/kg, route oral
Plasma [4] = assay: Drug metabolism in Sprague-Dawley rat plasma assessed as formation of (S)-2-((1R,2S,4R,5S)-5-hydroxybicyclo[2.2.1]heptan-2-ylamino)-5-isopropyl-5-methylthiazol-4(5H)-one at 2 mg/kg, po measured at 0.5 hrs by LC-MS/HPLC radiometric analysis; format: ADME, organism-based; design: dose 2 mg/kg, route oral
Plasma [5] = assay: Drug metabolism in Sprague-Dawley rat plasma assessed as formation of (S)-2-((1S,2S,4R)-bicyclo[2.2.1]heptan-2-ylamino)-5-((R)-1-hydroxypropan-2-yl)-5-methylthiazol-4(5H)-one at 2 mg/kg, po measured at 0.5 hrs by LC-MS/HPLC radiometric analysis; format: ADME, organism-based; design: dose 2 mg/kg, route oral
[6] = Drug metabolism in Sprague-Dawley rat feces assessed as formation of trihydroxy norbornyl metabolite at 2 mg/kg, po measured over 24 hrs by LC-MS/HPLC radiometric analysis; format: ADME, organism-based; design: dose 2 mg/kg, route oral
[7] = Drug level in Sprague-Dawley rat urine at 2 mg/kg, po measured over 24 hrs by LC-MS/HPLC radiometric analysis; format: ADME, organism-based; design: dose 2 mg/kg, route oral
[8] = Drug metabolism in Sprague-Dawley rat feces assessed as formation of (1R,2R,4R,5S)-5-((S)-5-isopropyl-5-methyl-4-oxo-4,5-dihydrothiazol-2-ylamino)bicyclo[2.2.1]heptan-2-yl hydrogen sulfate at 2 mg/kg, po measured over 24 hrs by LC-MS/HPLC radiometric analysis; format: ADME, organism-based; design: dose 2 mg/kg, route oral
[9] = Drug metabolism in Sprague-Dawley rat urine assessed as formation of (S)-2-((1S,2S,4R,6R)-6-hydroxybicyclo[2.2.1]heptan-2-ylamino)-5-((S)-1-hydroxypropan-2-yl)-5-methylthiazol-4(5H)-one at 2 mg/kg, po measured over 24 hrs by LC-MS/HPLC radiometric analysis; format: ADME, organism-based; design: route oral, dose 2 mg/kg
Plasma [10] = assay: Drug level in Sprague-Dawley rat plasma at 2 mg/kg, po measured at 0.5 hrs by LC-MS/HPLC radiometric analysis; format: ADME, organism-based; design: dose 2 mg/kg, route oral
[11] = Drug metabolism in Sprague-Dawley rat urine assessed as formation of (S)-5-isopropyl-5-methyl-2-((1R,2S,4R)-5-oxobicyclo[2.2.1]heptan-2-ylamino)thiazol-4(5H)-one at 2 mg/kg, po measured over 24 hrs by LC-MS/HPLC radiometric analysis; format: ADME, organism-based; design: dose 2 mg/kg, route oral
Plasma [12] = assay: Drug metabolism in Sprague-Dawley rat plasma assessed as formation of (S)-2-((1R,2S,4R,5R)-5-hydroxybicyclo[2.2.1]heptan-2-ylamino)-5-isopropyl-5-methylthiazol-4(5H)-one at 2 mg/kg, po measured at 0.5 hrs by LC-MS/HPLC radiometric analysis; format: ADME, organism-based; design: dose 2 mg/kg, route oral
[13] = Drug metabolism in Sprague-Dawley rat urine assessed as formation of (S)-2-((1R,2S,4R,5S)-5-hydroxybicyclo[2.2.1]heptan-2-ylamino)-5-((S)-1-hydroxypropan-2-yl)-5-methylthiazol-4(5H)-one at 2 mg/kg, po measured over 24 hrs by LC-MS/HPLC radiometric analysis; format: ADME, organism-based; design: dose 2 mg/kg, route oral
[14] = Drug metabolism in Sprague-Dawley rat urine assessed as formation of (S)-2-((1R,2S,4R,5S)-5-hydroxybicyclo[2.2.1]heptan-2-ylamino)-5-(2-hydroxypropan-2-yl)-5-methylthiazol-4(5H)-one at 2 mg/kg, po measured over 24 hrs by LC-MS/HPLC radiometric analysis; format: ADME, organism-based; design: dose 2 mg/kg, route oral
[15] = Drug metabolism in Sprague-Dawley rat urine assessed as formation of (S)-2-((1R,2S,4R,5R)-5-hydroxybicyclo[2.2.1]heptan-2-ylamino)-5-isopropyl-5-methylthiazol-4(5H)-one at 2 mg/kg, po measured over 24 hrs by LC-MS/HPLC radiometric analysis; format: ADME, organism-based; design: dose 2 mg/kg, route oral
[16] = Drug metabolism in Sprague-Dawley rat urine assessed as formation of (S)-2-((1S,2S,4R,6R)-6-hydroxybicyclo[2.2.1]heptan-2-ylamino)-5-isopropyl-5-methylthiazol-4(5H)-one at 2 mg/kg, po measured over 24 hrs by LC-MS/HPLC radiometric analysis; format: ADME, organism-based; design: dose 2 mg/kg, route oral
Rattus norvegicus [17] = assay: Total drug recovery in Sprague-Dawley rat at 2 mg/kg, po measured over 48 hrs by liquid scintillation counting analysis; format: ADME, organism-based; design: dose 2 mg/kg, route oral
[18] = Drug level in Sprague-Dawley rat feces at 2 mg/kg, po measured over 24 hrs by LC-MS/HPLC radiometric analysis; format: ADME, organism-based; design: dose 2 mg/kg, route oral
Plasma [19] = assay: Drug metabolism in Sprague-Dawley rat plasma assessed as formation of (S)-2-((1S,2S,4R)-bicyclo[2.2.1]heptan-2-ylamino)-5-((S)-1-hydroxypropan-2-yl)-5-methylthiazol-4(5H)-one at 2 mg/kg, po measured at 0.5 hrs by LC-MS/HPLC radiometric analysis; format: ADME, organism-based; design: dose 2 mg/kg, route oral
[20] = Drug recovery in feces of Sprague-Dawley rat at 2 mg/kg, po measured over 48 hrs by liquid scintillation counting analysis; format: ADME, organism-based; design: dose 2 mg/kg, route oral
[21] = Drug metabolism in Sprague-Dawley rat urine assessed as formation of (S)-2-((1R,2S,4R,5S)-5-hydroxybicyclo[2.2.1]heptan-2-ylamino)-5-isopropyl-5-methylthiazol-4(5H)-one at 2 mg/kg, po measured over 24 hrs by LC-MS/HPLC radiometric analysis; format: ADME, organism-based; design: dose 2 mg/kg, route oral
[22] = Drug metabolism in Sprague-Dawley rat urine assessed as formation of trihydroxy norbornyl metabolite at 2 mg/kg, po measured over 24 hrs by LC-MS/HPLC radiometric analysis; format: ADME, organism-based; design: dose 2 mg/kg, route oral
[23] = Drug metabolism in Sprague-Dawley rat urine assessed as formation of (S)-2-((1S,2S,4R)-bicyclo[2.2.1]heptan-2-ylamino)-5-((R)-1-hydroxypropan-2-yl)-5-methylthiazol-4(5H)-one at 2 mg/kg, po measured over 24 hrs by LC-MS/HPLC radiometric analysis; format: ADME, organism-based; design: dose 2 mg/kg, route oral
Plasma [24] = assay: Drug metabolism in Sprague-Dawley rat plasma assessed as formation of (S)-5-isopropyl-5-methyl-2-((1R,2S,4R)-5-oxobicyclo[2.2.1]heptan-2-ylamino)thiazol-4(5H)-one at 2 mg/kg, po measured at 0.5 hrs by LC-MS/HPLC radiometric analysis; format: ADME, organism-based; design: dose 2 mg/kg, route oral
[25] = Drug recovery in urine of Sprague-Dawley rat at 2 mg/kg, po measured over 48 hrs by liquid scintillation counting analysis; format: ADME, organism-based; design: dose 2 mg/kg, route oral
[26] = Drug metabolism in Sprague-Dawley rat urine assessed as formation of (S)-2-((1R,2S,4R,5S)-5-hydroxybicyclo[2.2.1]heptan-2-ylamino)-5-((R)-1-hydroxypropan-2-yl)-5-methylthiazol-4(5H)-one at 5 mg/kg, po measured over 24 hrs by LC-MS/HPLC radiometric analysis; format: ADME, organism-based; design: dose 5 mg/kg, route oral
[27] = Drug metabolism in Sprague-Dawley rat urine assessed as formation of (S)-2-((1R,2S,4R,5R)-5-hydroxybicyclo[2.2.1]heptan-2-ylamino)-5-((S)-1-hydroxypropan-2-yl)-5-methylthiazol-4(5H)-one at 5 mg/kg, po measured over 24 hrs by LC-MS/HPLC radiometric analysis; format: ADME, organism-based; design: dose 5 mg/kg, route oral
[28] = Drug metabolism in Sprague-Dawley rat urine assessed as formation of (2S,3S,4S,5R)-3,4,5-trihydroxy-6-((1R,2S,4R,5S)-5-((S)-5-isopropyl-5-methyl-4-oxo-4,5-dihydrothiazol-2-ylamino)bicyclo[2.2.1]heptan-2-yloxy)tetrahydro-2H-pyran-2-carboxylic acid at 5 mg/kg, po measured over 48 hrs by LC-MS/HPLC radiometric analysis; format: ADME, organism-based; design: dose 5 mg/kg, route oral
[29] = Drug recovery in bile of bile duct cannulated Sprague-Dawley rat at 5 mg/kg, po measured over 48 hrs by liquid scintillation counting analysis; format: ADME, organism-based; design: dose 5 mg/kg, route oral
[30] = Drug metabolism in Sprague-Dawley rat urine assessed as formation of (S)-2-((1R,2S,4R,5S)-5-hydroxybicyclo[2.2.1]heptan-2-ylamino)-5-(2-hydroxypropan-2-yl)-5-methylthiazol-4(5H)-one at 5 mg/kg, po measured over 24 hrs by LC-MS/HPLC radiometric analysis; format: ADME, organism-based; design: dose 5 mg/kg, route oral
[31] = Drug metabolism in Sprague-Dawley rat urine assessed as formation of (S)-5-isopropyl-5-methyl-2-((1R,2S,4R)-5-oxobicyclo[2.2.1]heptan-2-ylamino)thiazol-4(5H)-one at 5 mg/kg, po measured over 24 hrs by LC-MS/HPLC radiometric analysis; format: ADME, organism-based; design: dose 5 mg/kg, route oral
[32] = Drug recovery in feces of Sprague-Dawley rat at 5 mg/kg, po measured after 72 hrs by liquid scintillation counting analysis; format: ADME, organism-based; design: dose 5 mg/kg, route oral
Plasma [33] = assay: Drug level in Sprague-Dawley rat plasma at 5 mg/kg, po measured after 72 hrs by liquid scintillation counting analysis; format: ADME, organism-based; design: dose 5 mg/kg, route oral
[34] = Drug recovery in urine of bile duct cannulated Sprague-Dawley rat at 5 mg/kg, po measured over 48 hrs by liquid scintillation counting analysis; format: ADME, organism-based; design: dose 5 mg/kg, route oral
[35] = Drug recovery in urine of Sprague-Dawley rat at 5 mg/kg, po measured after 72 hrs by liquid scintillation counting analysis; format: ADME, organism-based; design: dose 5 mg/kg, route oral

**Q.** Which Drug metabolism [1] does the source give for `CC(C)[C@]1(C)SC(N[C@H]2C[C@H]3C[C@@H]2C[C@@H]3O[C@@H]2O[C@H](C(=O)O)[C@@H](O)[C@H](O)[C@H]2O)=NC1=O` here?
**A.** The Drug metabolism was “metabolite_detected”.

**Q.** What about the Retention_time [2] of the same compound?
**A.** Its Retention_time is 20.6 min.

**Q.** What about the Drug recovery (Rattus norvegicus [3]) of the same compound?
**A.** Its Drug recovery is 0.2%.

**Q.** For `CC(C)[C@]1([14CH3])SC(N[C@H]2C[C@@H]3CC[C@H]2C3)=NC1=O`, which Drug metabolism (Plasma [4]) is on record?
**A.** Its Drug metabolism is “metabolite_detected”.

**Q.** And the Drug metabolism (Plasma [5])?
**A.** The Drug metabolism was “metabolite_detected”.

**Q.** What about the Drug metabolism [6] of the same compound?
**A.** Its Drug metabolism is “metabolite_detected”.

**Q.** What about the Drug uptake [7] of the same compound?
**A.** Its Drug uptake is “Not Active”.

**Q.** And the Drug metabolism [8]?
**A.** Its Drug metabolism is “metabolite_detected”.

**Q.** What about the Drug metabolism [9] of the same compound?
**A.** Its Drug metabolism is “metabolite_detected”.

**Q.** And the Drug uptake (Plasma [10])?
**A.** Its Drug uptake is “Active”.

**Q.** What about the Drug metabolism [11] of the same compound?
**A.** Its Drug metabolism is “metabolite_detected”.

**Q.** What about the Drug metabolism (Plasma [12]) of the same compound?
**A.** Its Drug metabolism is “metabolite_detected”.

**Q.** And the Drug metabolism [13]?
**A.** The Drug metabolism was “metabolite_detected”.

**Q.** And the Drug metabolism [14]?
**A.** Its Drug metabolism is “metabolite_detected”.

**Q.** What about the Drug metabolism [15] of the same compound?
**A.** The Drug metabolism was “metabolite_detected”.

**Q.** What about the Drug metabolism [16] of the same compound?
**A.** The Drug metabolism was “metabolite_detected”.

**Q.** What about the Drug recovery (Rattus norvegicus [17]) of the same compound?
**A.** The Drug recovery was 81%.

**Q.** What about the Drug uptake [18] of the same compound?
**A.** The Drug uptake was “Not Active”.

**Q.** What about the Drug metabolism (Plasma [19]) of the same compound?
**A.** The Drug metabolism was “metabolite_detected”.

**Q.** And the Drug recovery [20]?
**A.** Its Drug recovery is 14%.

**Q.** What about the Drug metabolism [21] of the same compound?
**A.** Its Drug metabolism is “metabolite_detected”.

**Q.** What about the Drug metabolism [22] of the same compound?
**A.** The Drug metabolism was “metabolite_detected”.

**Q.** What about the Drug metabolism [23] of the same compound?
**A.** Its Drug metabolism is “metabolite_detected”.

**Q.** And the Drug metabolism (Plasma [24])?
**A.** The Drug metabolism was “metabolite_detected”.

**Q.** And the Drug recovery [25]?
**A.** The Drug recovery was 64%.

**Q.** Which results are given for `CC(C)[C@]1([14CH3])SC(N[C@H]2C[C@H]3C[C@@H]2C[C@@H]3O)=NC1=O`?
**A.** Drug metabolism [26]: metabolite_detected; Drug metabolism [27]: metabolite_detected; Drug metabolism [28]: metabolite_detected; Drug recovery [29]: 10%; Drug metabolism [30]: metabolite_detected; Drug uptake [7]: Active; Drug metabolism [31]: metabolite_detected; Drug recovery [32]: 7%; Drug uptake (Plasma [33]): Active; Drug recovery [34]: 55%; Drug recovery [35]: 89%
